A short description of data set [1]: In vivo pharmacokinetic study, oral, plasma and liver, rat. The note with it: for Observed level of "active metabolite" AUC0→last, Liver / Observed level of "active metabolite" AUC0→last, Plasma: active metabolite I.6 released after oral prodrug 32 mpk, Sprague-Dawley rats, n = 3; for concentrations of the dosed prodrug itself in plasma and tissue: single PO administration at 32 mg/kg in male SD rats, PK parameters not determined. Further details: species or system Sprague Dawley rats. Here is the method:
The compounds of this invention were tested orally administered in a formulation of 25% PEG 400: 10% solutol: 65% water with a 5 mL/Kg solution across species of CD-1 mice, C57BL/J6 mice, or Sprague Dawley rats following IACUC guidelines. The rat PK of Compound I.9 and Compound I.10 PO dose of 32 mpk exemplifies the methodology used across species.
The purpose of this rat PK study was to determine the pharmacokinetics of Compound I.9, Compound I.6 and Compound I.10 in plasma following oral gavage administration of Compound I.9 and Compound I.10 to male SD rats. For PO groups, the liver and plasma concentration were measured at 1, 2, 6 and 10 h post-dose. Concentrations of Compound I.9, Compound I.6 and Compound I.10 in plasma and tissue samples were determined by a liquid chromatography tandem mass spectrometry (LC-MS/MS) method. Oral (PO) Dose—Groups 1 and 2 Compound I.9 was prepared as a clear solution in 25% PEG400+10% Solutol+65% water (Adjust the final pH to 7˜8). Groups 3 and 4 Compound I.10 was prepared as a homogeneous suspension in 25% PEG400+10% Solutol+65% water (Adjust the final pH to 7˜8). Blood (about 0.2 mL) was collected at each time point via jugular vein puncture from each study animal into a tube A. The following 4-mix stabilizer for esterase inhibition was added into a pre-chilled commercial tube B containing potassium (K2) EDTA (0.85-1.15 mg) in advance. Then the blood in the tube A will be accurately transferred (4-mix stabilizer: blood, 1:10 (v:v)) into the tube B and placed on wet ice until centrifugation.
The following 4-mix stabilizer was added into the cold homogenizing buffer (MeOH/15 mM PBS 1:2) in advance. Then each tissue was weighed and added the cold homogenizing buffer with stabilizer at the ratio of 1:9 (1 g tissue with 9 mL buffer), then homogenized on wet ice. The tissue homogenate was kept at −60° C. or lower until LC-MS/MS analysis.
Bioanalytical Analysis The concentrations of Compound I.9, Compound I.6 and Compound I.10 in plasma and tissue were determined by using an LC-MS/MS method. Instrumentation and conditions for
Compound I.9, Compound I.10 and Compound I.6 in plasma and tissue homogenate. • LC parameters • Equipment: ACQUITY UPLC System • Analytical column: ACQUITY UPLC HSS T3 1.8 μm 2.1×50 mm • Inject volume: 5 μL for plasma; 3.5 μL for tissue homogenate • Mobile phase A: 0.1% FA & 2 mmol/L HCOONH4 in water/ACN (v/v, 95:5) • Mobile phase B: 0.1% FA & 2 mmol/L HCOONH4 in ACN/water (v/v, 95:5) • Elution Mode: Gradient
• Mass spectrometer: Triple Quad 6500 plus • Ionization mode: ESI (+) • Detective mode: MRM

In data set [2] the test system is HBV S-antigen secretion. Put plainly: HBsAg assay (HepG2 HBV S-antigen secretion biological assay). The note with it: Hepatitis B virus, HepG2.2.15, 72 h, read-out: EC50, HBV S-antigen secretion. It counts as cell-based. The procedure: HepG2.2.15 cells were grown in flasks microscopically and seeded into 96-well plates at a concentration of 6.0×10^4 cells/well and incubated at 37° C., 5% CO2 overnight.
Source plate preparation. The stock concentration of reference compound and test compounds is 20 mM. Firstly, manually diluted the compound to obtain the first concentration points of 10 μM and 200 μM, respectively. Then a 3-fold, 8 points serial dilution is performed to obtain the 200× source plate.
Source plate compounds were pipetted as follows: 3 μL 200× source plate compounds into sterile 2 mL 96 well plate which contain 297 μL 2% FBS Medium, mix well and transfer 100 μL/well to corresponding cell culture plates. Therefore, the test conditions of the final compounds is 1 μM initiation, 3-fold serial dilution, and 8 concentration points in duplicate.
Incubate the cells at 37° C., 5% CO2 for three days.
24 hours post-seeding, the cells were treated with 200 μl/well of media containing serially diluted compounds in DMSO. DMSO alone was used as the no drug control. The final DMSO concentration in all wells was 0.5%.
The HBsAg kit (Auto Biology-CL 0310) was used to determine the level of secreted HBVsAg. The HBSAg assay was performed as follows: • a) Blance the ELISA kit at room temperature for 30 minutes. • b) Add 50 μL standard solution, sample, positive and negative control to each well of the microplate in the kit. • c) Add 50 μL HBsAg enzyme conjugate to each well. • d) Attach the plate membrane, oscillate for 60 seconds, and incubate at 37° C. for 60 minutes. • e) Add 350 μL washing buffer to each well, shake slightly, discard liquid, repeat 6 times. Then pat 5 times on an absorbent paper towel to dry the hole. • f) Add 50 μL mixture of reagent A and B to each well. Oscillate the microplate for 10 seconds. • g) Cover the plate membrane and incubate at room temperature for 10 minutes. Read the luminescent signal using Biotek-Synergy 2.
Compounds inhibition against HBsAg at different concentrations are calculated by the following formula:
Inhibition %=(1−value of sample/ave. value of control)×100
50% effective concentrations (EC50) and were calculated with the GraphPad Prism software.

Structures are written as SMILES.

As a reminder, the EC50 is the concentration needed to bring the measured effect to its halfway point. Turning to `CCCCOC(=O)CCCCCCCOc1cccc2c3n(nc12)C[C@@H](C(C)(C)C)n1cc(C(=O)O)c(=O)cc1-3` [I.10, (R)-10-((8-butoxy-8-oxooctyl)oxy)-6-(tert-butyl)-2-oxo-6,7-dihydro-2H-pyrido[2′,1′:3,4]pyrazino[1,2-b]indazole-3-carboxylic acid], in data set [1], the “Observed level of "active metabolite" AUC0→last, Liver” value came to 19444 ng·h/g; the “Observed level of "active metabolite" AUC0→last, Plasma” value was 146 ng·h/g; the “concentrations of the dosed prodrug itself in plasma and tissue” value is listed as “most concentrations were below the lower limit of quantitation”. Besides, in data set [2], the EC50 stood at 4 ± 0.8 nM.

On to `CCOC(=O)CCCCCCOc1cccc2c3n(nc12)C[C@@H](C(C)(C)C)n1cc(C(=O)O)c(=O)cc1-3` [I.3, (R)-6-(tert-butyl)-10-((7-ethoxy-7-oxoheptyl)oxy)-2-oxo-6,7-dihydro-2H-pyrido[2′,1′:3,4]pyrazino[1,2-b]indazole-3-carboxylic acid], for which the concentration giving a half-maximal response (EC50) in data set [2] stood at 11.8 nM.

`CCOC(=O)CCCCCCCOc1cccc2c3n(nc12)C[C@@H](C(C)(C)C)n1cc(C(=O)O)c(=O)cc1-3` [I.7, (R)-6-(tert-butyl)-10-((8-ethoxy-8-oxooctyl)oxy)-2-oxo-6,7-dihydro-2H-pyrido[2′,1′:3,4]pyrazino[1,2-b]indazole-3-carboxylic acid]: in data set [2], the EC50 came out at 7.1 nM.

In the case of `CC(C)OC(=O)CCCCCCCOc1cccc2c3n(nc12)C[C@@H](C(C)(C)C)n1cc(C(=O)O)c(=O)cc1-3` [I.9, (R)-6-(tert-butyl)-10-((8-isopropoxy-8-oxooctyl)oxy)-2-oxo-6,7-dihydro-2H-pyrido[2′,1′:3,4]pyrazino[1,2-b]indazole-3-carboxylic acid], in data set [1], the “Observed level of "active metabolite" AUC0→last, Liver” value stood at 29367 ng·h/g; the “Observed level of "active metabolite" AUC0→last, Plasma” value came to 290 ng·h/g; the “concentrations of the dosed prodrug itself in plasma and tissue” value is “most concentrations were below the lower limit of quantitation”. Moreover, in data set [2], the EC50 was found to be 5.3 ± 0.9 nM.

Consider `CCCCCCCOC(=O)CCCCCCOc1cccc2c3n(nc12)C[C@@H](C(C)(C)C)n1cc(C(=O)O)c(=O)cc1-3` [I.4, (R)-6-(tert-butyl)-10-((7-(heptyloxy)-7-oxoheptyl)oxy)-2-oxo-6,7-dihydro-2H-pyrido[2′,1′:3,4]pyrazino[1,2-b]indazole-3-carboxylic acid], for which the EC50 in data set [2] was 14 nM.

`CC(C)(C)[C@@H]1Cn2nc3c(OCCCCCC(=O)O)cccc3c2-c2cc(=O)c(C(=O)O)cn21` [I.1, (R)-6-(tert-butyl)-10-((5-carboxypentyl)oxy)-2-oxo-6,7-dihydro-2H-pyrido[2′,1′:3,4]pyrazino[1,2-b]indazole-3-carboxylic acid]: the 50% effective concentration (EC50) in data set [2] was 25.5 nM.

In the case of `CC(C)(C)[C@@H]1Cn2nc3c(OCCCCCCCCC(=O)O)cccc3c2-c2cc(=O)c(C(=O)O)cn21` [I.13, (R)-6-(tert-butyl)-10-((8-carboxyoctyl)oxy)-2-oxo-6,7-dihydro-2H-pyrido[2′,1′:3,4]pyrazino[1,2-b]indazole-3-carboxylic acid], the EC50 in data set [2] was 1.2 ± 0.5 nM.

(Values after patent publication US20240182472A1, “INDAZOLE PYRIDONE COMPOUNDS AND USES THEREOF” (Bluejay Therapeutics, Inc., priority 2022, published 2024).)
